{
  "source": "patent US7750003B2",
  "about": "“Compounds-943” (AstraZeneca AB, priority 2006, dated 2010)",
  "data": [
    {"biological_target": "recombinant mTOR (FLAG-tagged, residues 1362-2549) (Homo sapiens, UniProt P42345)", "sequence (P42345 1362-2549)": "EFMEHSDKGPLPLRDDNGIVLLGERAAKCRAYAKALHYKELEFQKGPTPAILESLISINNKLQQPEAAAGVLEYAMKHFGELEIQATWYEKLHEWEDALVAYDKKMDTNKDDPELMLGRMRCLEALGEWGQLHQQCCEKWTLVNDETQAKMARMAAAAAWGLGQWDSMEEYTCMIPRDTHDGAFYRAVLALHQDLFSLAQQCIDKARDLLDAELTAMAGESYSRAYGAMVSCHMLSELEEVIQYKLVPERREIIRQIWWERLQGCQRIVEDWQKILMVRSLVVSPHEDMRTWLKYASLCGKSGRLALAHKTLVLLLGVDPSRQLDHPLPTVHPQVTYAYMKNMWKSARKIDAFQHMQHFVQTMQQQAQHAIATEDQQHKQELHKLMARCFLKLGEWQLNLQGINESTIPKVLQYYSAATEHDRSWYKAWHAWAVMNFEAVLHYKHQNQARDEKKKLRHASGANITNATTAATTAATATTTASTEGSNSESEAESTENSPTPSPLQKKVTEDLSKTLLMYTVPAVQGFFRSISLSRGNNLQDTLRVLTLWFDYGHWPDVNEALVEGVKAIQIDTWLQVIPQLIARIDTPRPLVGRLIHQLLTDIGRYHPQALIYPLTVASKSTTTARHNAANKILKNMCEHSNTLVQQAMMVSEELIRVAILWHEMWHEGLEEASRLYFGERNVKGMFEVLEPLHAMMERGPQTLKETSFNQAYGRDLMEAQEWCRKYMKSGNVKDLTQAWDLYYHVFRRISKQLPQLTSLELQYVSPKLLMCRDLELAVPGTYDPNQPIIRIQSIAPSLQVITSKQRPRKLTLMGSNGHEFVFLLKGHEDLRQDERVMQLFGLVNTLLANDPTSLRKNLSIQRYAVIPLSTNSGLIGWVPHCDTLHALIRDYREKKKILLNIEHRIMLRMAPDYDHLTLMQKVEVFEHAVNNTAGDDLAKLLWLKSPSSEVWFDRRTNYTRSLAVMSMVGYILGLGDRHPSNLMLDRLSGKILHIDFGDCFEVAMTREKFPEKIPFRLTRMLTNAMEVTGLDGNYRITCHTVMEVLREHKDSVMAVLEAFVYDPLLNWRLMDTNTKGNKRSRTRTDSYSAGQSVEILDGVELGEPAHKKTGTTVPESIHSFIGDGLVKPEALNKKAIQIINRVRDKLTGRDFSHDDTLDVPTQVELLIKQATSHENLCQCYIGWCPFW", "assay": "In vitro mTOR kinase assay (Test (a), AlphaScreen)", "format": "biochemical", "details": "ATP 20 μM, read-out: Test (a): IC50 versus mTOR kinase", "procedure,_shortened": "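AlphaScreen read-out: a phospho-T389 p70 S6K antibody on acceptor beads captures the phosphorylated biotin-peptide on donor beads, with signal loss indicating inhibition.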", "units": {"IC50": "nM"}, "values": [
      {"smiles": "COCCNC(=O)Nc1ccc(-c2nc(N3CCOC[C@@H]3C)cc(C(C)(C)S(C)(=O)=O)n2)cc1", "note": "[Example 21k, 3-(2-methoxyethyl)-1-[4-[4-[(3S)-3-methylmorpholin-4-yl]-6-(2-methylsulfonylpropan-2-l)pyrimidin-2-yl]phenyl]urea]", "IC50": 310},
      {"smiles": "C[C@H]1COCCN1c1cc(CS(C)(=O)=O)nc(-c2ccc(NC(=O)Nc3ncccn3)cc2)n1", "note": "[Example 22a, 1-[4-[4-[(3S)-3-methylmorpholin-4-yl]-6-(methylsulfonylmethyl)pyrimidin-2-yl]phenyl]-3-pyrimidin-2-yl-urea]", "IC50": 60},
      {"smiles": "Cc1cccc(C)c1NC(=O)Nc1ccc(-c2nc(CS(C)(=O)=O)cc(N3CCOC[C@@H]3C)n2)cc1", "note": "[Example 22b, 1-(2,6-dimethylphenyl)-3-[4-[4-[(3S)-3-methylmorpholin-4-yl]-6-(methylsulfonylmethyl)pyrimidin-2-yl]phenyl]urea]", "IC50": 1600},
      {"smiles": "Cc1cc(NC(=O)Nc2ccc(-c3nc(CS(C)(=O)=O)cc(N4CCOC[C@@H]4C)n3)cc2)no1", "note": "[Example 22d, 3-[4-[4-[(3S)-3-methylmorpholin-4-yl]-6-(methylsulfonylmethyl)pyrimidin-2-yl]phenyl]-1-(5-methyl-1,2-oxazol-3-yl)urea]", "IC50": 4.8},
      {"smiles": "Cc1oncc1NC(=O)Nc1ccc(-c2nc(CS(C)(=O)=O)cc(N3CCOC[C@@H]3C)n2)cc1", "note": "[Example 22e, 3-[4-[4-[(3S)-3-methylmorpholin-4-yl]-6-(methylsulfonylmethyl)pyrimidin-2-yl]phenyl]-1-(5-methyl-1,2-oxazol-4-yl)urea]", "IC50": 560},
      {"smiles": "C[C@H]1COCCN1c1cc(CS(C)(=O)=O)nc(-c2ccc(NC(=O)Nc3cnn(C)c3)cc2)n1", "note": "[Example 22f, 1-[4-[4-[(3S)-3-methylmorpholin-4-yl]-6-(methylsulfonylmethyl)pyrimidin-2-yl]phenyl]-3-(1-methylpyrazol-4-yl)urea]", "IC50": 91},
      {"smiles": "C[C@H]1COCCN1c1cc(CS(C)(=O)=O)nc(-c2ccc(NC(=O)Nc3cc[nH]c(=O)c3)cc2)n1", "note": "[Example 22g, 1-[4-[4-[(3S)-3-methylmorpholin-4-yl]-6-(methylsulfonylmethyl)pyrimidin-2-yl]phenyl]-3-(2-oxo-1H-pyridin-4-yl)urea]", "IC50": 4.5},
      {"smiles": "Cc1nn(C)c(C)c1NC(=O)Nc1ccc(-c2nc(CS(C)(=O)=O)cc(N3CCOC[C@@H]3C)n2)cc1", "note": "[Example 22h, 3-[4-[4-[(3S)-3-methylmorpholin-4-yl]-6-(methylsulfonylmethyl)pyrimidin-2-yl]phenyl]-1-(1,3,5-trimethylpyrazol-4-yl)urea]", "IC50": 1500},
      {"smiles": "Cc1n[nH]c(C)c1NC(=O)Nc1ccc(-c2nc(CS(C)(=O)=O)cc(N3CCOC[C@@H]3C)n2)cc1", "note": "[Example 22i, 1-(3,5-dimethyl-1H-pyrazol-4-yl)-3-[4-[4-[(3S)-3-methylmorpholin-4-yl]-6-(methylsulfonylmethyl)pyrimidin-2-yl]phenyl]urea]", "IC50": 4300},
      {"smiles": "CNC(=O)NC1CCN(c2nc(CS(C)(=O)=O)cc(N3CCOC[C@@H]3C)n2)CC1", "note": "[Example 23, 3-Methyl-1-[1-[4-[(3S)-3-methylmorpholin-4-yl]-6-(methylsulfonylmethyl)pyrimidin-2-yl]-4-piperidyl]urea]", "IC50": 5600},
      {"smiles": "CCNC(=O)NC1CCN(c2nc(CS(C)(=O)=O)cc(N3CCOC[C@@H]3C)n2)CC1", "note": "[Example 23a, 1-ethyl-3-[1-[4-[(3S)-3-methylmorpholin-4-yl]-6-(methylsulfonylmethyl)pyrimidin-2-yl]-4-piperidyl]urea]", "IC50": 3700},
      {"smiles": "C[C@H]1COCCN1c1cc(CS(C)(=O)=O)nc(-c2ccc(NC(=O)NCCc3ccccn3)cc2)n1", "note": "[Example 24, 1-[4-[4-[(3S)-3-Methylmorpholin-4-yl]-6-(methylsulfonylmethyl)pyrimidin-2-yl]phenyl]-3-(2-pyridin-2-ylethyl)urea]", "IC50": 340},
      {"smiles": "C[C@H]1COCCN1c1cc(CS(C)(=O)=O)nc(-c2ccc(NC(=O)NCc3cccnc3)cc2)n1", "note": "[Example 24a, 1-[4-[4-[(3S)-3-methylmorpholin-4-yl]-6-(methylsulfonylmethyl)pyrimidin-2-yl]phenyl]-3-(pyridin-3-ylmethyl)urea]", "IC50": 82},
      {"smiles": "CNC(=O)Nc1c(F)cc(-c2nc(N3CCOC[C@@H]3C)cc(C(C)(C)S(C)(=O)=O)n2)cc1F", "note": "[Example 24ab, 1-[2,6-difluoro-4-[4-[(3S)-3-methylmorpholin-4-yl]-6-(2-methylsulfonylpropan-2-yl)pyrimidin-2-yl]phenyl]-3-methyl-urea]", "IC50": 42},
      {"smiles": "CCNC(=O)Nc1c(F)cc(-c2nc(N3CCOC[C@@H]3C)cc(C(C)(C)S(C)(=O)=O)n2)cc1F", "note": "[Example 24ac, 3-[2,6-difluoro-4-[4-[(3S)-3-methylmorpholin-4-yl]-6-(2-methylsulfonylpropan-2-yl)pyrimidin-2-yl]phenyl]-1-ethyl-urea]", "IC50": 48},
      {"smiles": "C[C@H]1COCCN1c1cc(C(C)(C)S(C)(=O)=O)nc(-c2cc(F)c(NC(=O)NC3CC3)c(F)c2)n1", "note": "[Example 24ad, 3-cyclopropyl-1-[2,6-difluoro-4-[4-[(3S)-3-methylmorpholin-4-yl]-6-(2-methylsulfonylpropan-2-yl)pyrimidin-2-yl]phenyl]urea]", "IC50": 510},
      {"smiles": "C[C@H]1COCCN1c1cc(C(C)(C)S(C)(=O)=O)nc(-c2cc(F)c(NC(=O)NCc3cnn(C)c3)c(F)c2)n1", "note": "[Example 24ae, 1-[2,6-difluoro-4-[4-[(3S)-3-methylmorpholin-4-yl]-6-(2-methylsulfonylpropan-2-yl)pyrimidin-2-yl]phenyl]-3-[(1-methylpyrazol-4-yl)methyl]urea]", "IC50": 240},
      {"smiles": "C[C@H]1COCCN1c1cc(CS(C)(=O)=O)nc(-c2ccc(NC(=O)NCCc3c[nH]cn3)cc2)n1", "note": "[Example 24b, 3-[2-(1H-imidazol-4-yl)ethyl]-1-[4-[4-[(3S)-3-methylmorpholin-4-yl]-6-(methylsulfonylmethyl)pyrimidin-2-yl]phenyl]urea]", "IC50": 38},
      {"smiles": "CNC(=O)Nc1ncc(-c2nc(N3CCOC[C@@H]3C)cc(C(C)(C)S(C)(=O)=O)n2)cn1", "note": "[Example 24bh, 3-methyl-1-[5-[4-[(3S)-3-methylmorpholin-4-yl]-6-(2-methylsulfonylpropan-2-yl)pyrimidin-2-yl]pyrimidin-2-yl]urea]", "IC50": 12},
      {"smiles": "C[C@H]1COCCN1c1cc(C(C)(C)S(C)(=O)=O)nc(-c2ccc(NC(=O)NCc3cnn(C)c3)nc2)n1", "note": "[Example 24bi, 1-[5-[4-[(3S)-3-methylmorpholin-4-yl]-6-(2-methylsulfonylpropan-2-yl)pyrimidin-2-yl]pyridin-2-yl]-3-[(1-methylpyrazol-4-yl)methyl]urea]", "IC50": 430},
      {"smiles": "C[C@H]1COCCN1c1cc(C(C)(C)S(C)(=O)=O)nc(-c2ccc(NC(=O)NCCO)cc2)n1", "note": "[Example 24bj, 3-(2-hydroxyethyl)-1-[4-[4-[(3S)-3-methylmorpholin-4-yl]-6-(2-methylsulfonylpropan-2-yl)pyrimidin-2-yl]phenyl]urea]", "IC50": 51},
      {"smiles": "Cc1cnc(CNC(=O)Nc2ccc(-c3nc(CS(C)(=O)=O)cc(N4CCOC[C@@H]4C)n3)cc2)cn1", "note": "[Example 24c, 3-[4-[4-[(3S)-3-methylmorpholin-4-yl]-6-(methylsulfonylmethyl)pyrimidin-2-yl]phenyl]-1-[(5-methylpyrazin-2-yl)methyl]urea]", "IC50": 560},
      {"smiles": "C[C@H]1COCCN1c1cc(CS(C)(=O)=O)nc(-c2ccc(NC(=O)NCc3ccccn3)cc2)n1", "note": "[Example 24d, 1-[4-[4-[(3S)-3-methylmorpholin-4-yl]-6-(methylsulfonylmethyl)pyrimidin-2-yl]phenyl]-3-(pyridin-2-ylmethyl)urea]", "IC50": 4400}
    ]}
  ]
}
